The source of these data is article PMC9394307, “Discovery of Putative Dual Inhibitor of Tubulin and EGFR by Phenotypic Approach on LASSBio-1586 Homologs” (Pharmaceuticals, 2022).

The test system of data set [1] is H1975 cells. The data set is described as follows: Immunofluorescence of β-tubulin / microtubules. The data set is classed as cell-based, human. To be noted: H1975, 48 h, CA-4 0.3 µM, vincristine 0.5 µM, taxol 0.1 µM, LASSBio-1586 10 µM, LASSBio-1735 0.5 µM, LASSBio-2070 4.5 µM, LASSBio-2074 20 µM. As to the method: Antitubulin agents have been broadly classified into destabilizing or stabilizing agents, based on their interference with the dynamic balance of polymerization or depolymerization of microtubules. […] CA-4 (1, 0.3 µM), vincristine (0.5 µM) and taxol (0.1 µM) were used as standard controls.
After incubation, cells were rinsed with PBS and fixed with 4% paraformaldehyde in PBS for 10 min at room temperature. They were then permeabilized with 0.5% Triton-X 100 in PBS 3 times for 10 min. The same solution was used for all subsequent washing steps. Cells were incubated with an anti-beta-tubulin antibody for 1 h at 37 °C. After incubation, cells were washed for 30 min and incubated with Alexa Fluor® 488, conjugated secondary antibody for 1 h at 37 °C, and nuclei were labeled with DAPI (0.1 mg/mL in 0.9% NaCl).
Live cultured cells grown in coverslips were mounted in Prolong Gold solution (Molecular Probes, USA) and were imaged on a Leica TCS SPE confocal microscope (Leica Microsystems, Germany) using 63x 1.3 N.A. oil immersion and the images acquired by the LAS X software. Cell morphology, focusing on the microtubules was analyzed, qualitatively, using the public domain NIH ImageJ Program (developed at the National Institutes of the USA Health and available on the internet at http://imagej.nih.gov/ij/ (accessed on 1 September 2021).

Data set [2] relates to HL-60. Further details: method as in PMID 24614859. The note with it: cited from earlier work.
Data set [3] relates to SF-295. Further details: method as in PMID 24614859, PMID 30006065, PMID 25564377. To be noted: cited from earlier work.
In data set [4] the test system is HCT-116. Also on record: method as in PMID 24614859, PMID 30006065, PMID 25564377. The note with it: cited from earlier work.
The test system of data set [5] is β-tubulin. Further details: method as in PMID 24614859, PMID 30006065, PMID 25564377. To be noted: cited from earlier work.
Data set [6] relates to EGFR in PC-9 cell line (EGFR^L858R). The data set is described as follows: Guava Muse EGFR-RTK Activation Dual Detection Kit, flow cytometry. The data set is classed as cell-based, human. The note with it: PC-9, LASSBio-2070 0.03 µM. As to the method:
Flow cytometry was applied to help elucidate the mechanism of action of the studied compounds, both to verify the cell cycle phase and to verify the action on EGFR protein kinase.
The anti-tubulin effect was evaluated by seeding H1975, H292 and PC-9 into 6-well plates at a density of 2 × 10^5 per well. The cells were treated with the selected compounds for 72 h. Cells were harvested and stained according to the protocols of The Guava Muse® Cell Cycle Kit (MCH100106) to quantitatively measure the percentage of cells in the G2/M phases of the cell cycle and the EGFR-RTK Activation Dual Detection Kit (MCH200102) (Luminex®) to measure EGFR phosphorylation in relation to total EGFR expression in the cell population, according to the manufacturer’s instructions for use in test kits using a Guava Muse® Cell Analyzer (Luminex®). Each experiment was performed at least three times independently.
(Flow cytometry measures light scatter and fluorescence of single cells or particles in a stream.)

On to `COc1cc(C(=O)N(C)/N=C/c2ccccc2)cc(OC)c1OC` [LASSBio-1735 (3), (E)-N’-benzylidene-3,4,5-trimethoxy-N-methylbenzohydrazide], for which, in data set [1], the “cell morphology after treatment” value is “more spread-out morphology”. Also, the results for the “effect on microtubules (stabilizing / destabilizing profile)” value in data set [1] and in data set [1] (listed as 3 (LASSBio-1735)) were “cell morphology similar to microtubule-stabilizing drugs” and “microtubule destabilizing behavior”, respectively. Also, the “cytotoxic potency against HL-60 compared with LASSBio-1586 (2)” value in data set [2] was “cytotoxic potency superior to LASSBio-1586 (2)”.
For `CCOC(=O)CN(/N=C/c1ccccc1)C(=O)c1cc(OC)c(OC)c(OC)c1` [LASSBio-2074 (11), Ethyl (E)-N-(benzylideneamino)-N-(3,4,5-trimethoxybenzoyl)glycinate], in data set [1], the “cell morphology after treatment” value was “more spread-out morphology” and the “effect on microtubules (stabilizing / destabilizing profile)” value is given as “cell morphology similar to microtubule-stabilizing drugs”.
Regarding `COc1cc(C(=O)N/N=C/c2ccccc2)cc(OC)c1OC` [LASSBio-1586 (2), (E)-N’-benzylidene-3,4,5-trimetoxybenzohydrazide], the “cell morphology after treatment” value in data set [1] is reported as “more spread-out morphology”. The results for the “effect on microtubules (stabilizing / destabilizing profile)” value in data set [1] and in data set [1] (listed as 2 (LASSBio-1586)) were “cell morphology similar to microtubule-stabilizing drugs” and “microtubule destabilizing behavior”, respectively. Further, the “proliferation of SF-295 in the Hollow Fiber Assay” value in data set [3] is given as “able to decrease proliferation”. Further, the “proliferation of HCT-116 in the Hollow Fiber Assay” value in data set [4] is “able to decrease proliferation”. In addition, in data set [5], the “ability to inhibit β-tubulin” value is given as “confirmed”.
Consider `COc1cc(C(=O)N(Cc2ccccc2)/N=C/c2ccccc2)cc(OC)c1OC` [LASSBio-2070 (10), (E)-N-benzyl-N’-benzylidene-3,4,5-trimethoxybenzohydrazide], for which, in data set [1], the “cell morphology after treatment” value is given as “rounded shape” and the “effect on microtubules (stabilizing / destabilizing profile)” value is reported as “typical response of microtubule destabilizing agents”. In addition, in data set [6], the “modulation of EGFR activity in a phenotypic model” value is recorded as “inhibiting the phosphorylation of EGFR”.
